≈ marks a conversion by molar mass, not a printed value. Where no end group is shown, it is not given here.
What was measured:
[1] = system: SMMC7721 pulmonary metastasis; experiment: SMMC7721 pulmonary metastatic mouse model; format: in vivo; conditions: SMMC7721 cells injected through the tail vein into nude mice, day 21, compared with saline/control group, n = 6
Experimental: The antimetastatic effects were evaluated by determining the number of metastatic nodules and the degree of H&E staining in the lung tissues.
(§1) Data are given as the mean ± SD (n = 6).
Then, mice were sacrificed and photographed, and the primary tumors and the lungs were striped, and then washed with cold PBS. […] For pulmonary metastatic assays, SMMC7721 cells were trypsinized, suspended in complete medium at a density of 1 × 10^7 cells mL^−1, and then immediately intravenously injected into the nude mice through the tail vein. Images of metastatic nodules on the lungs were obtained with a camera and nodules were counted; histological sections of lungs were stained with H&E for the histopathological examination.

SMMC7721 cells [2] = experiment: In vitro migration assay (transwell); format: cell-based; conditions: SMMC7721 cells treated 24 h with 2.5 µg mL^−1 DOX/well, then 24 h transwell incubation, crystal violet
Experimental: Microscopy images of b) migration and c) invasion and e,f) quantitative analysis of SMMC7721 cells that passed through the membrane. […] Cells without treatments were used as control.
Then, 500 µL of media were added to the lower chamber as a chemoattractant. […] Cells that got through the membrane and were located on the lower surface were fixed using 4% paraformaldehyde, stained with crystal violet, and quantified with a microplate reader (Leica, Germany).

[3] = rat, in vivo
Experimental: The dynamic behavior of the nanofiber was monitored at predetermined intervals after injection by liquid chromatography‐tandem mass spectrometry (LC/MS/MS).
The rats were anaesthetized with ether. A heparinized capillary was then inserted into eyeground veins to obtain 0.3 mL of blood in a plastic centrifuge tube. Plasma samples were collected by centrifugation at 12 000 rpm for 5 min and then stored immediately at −20 °C until analysis. Next, 300 µL of acetonitrile containing an internal standard (clarithromycin, 20 ng mL^−1) were added to the 100 µL plasma samples to precipitate protein, the mixture was centrifuged at 13 000 rpm for 5 min, and 50 µL of supernatant were assayed by LC/MS/MS.

SMMC7721 cells [4] = experiment: MTT cell toxicity assay; format: cell-based; conditions: 24 h incubation, mean ± SD (n = 6)
Experimental: as §1
Cell Toxicity Assay: Cytotoxicity in SMMC7221 cells was quantified using an MTT assay. Cells were incubated in Dulbecco's modified Eagle medium (DMEM) medium containing 10% fetal calf serum at 37 °C in an atmosphere of 5% CO2 in air. For the cytotoxicity assay, SMMC7721 cells were precultured in 96‐well cell culture plates at a density of 1.0 × 10^5 cells per well in 100 µL of medium and grown overnight.

SMMC7721 tumors = experiment: Inhibition of liver tumor growth in mice bearing SMMC7721 tumors; format: in vivo; conditions: intratumor injection, 5 mg kg^−1 DOX, versus saline and KGFRWR groups
Experimental: At the end of the experiment, tumors were photographed and weighed.
The body weight and tumor volume were recorded and calculated three times a week for three weeks. The tumor length (L), which is the longest diameter of the tumor, and width (W), which is the diameter in the direction perpendicular to the length, were measured using Vernier calipers, and the tumor volume (V) was counted using the following formula: V = LW ^2/2. Then, mice were sacrificed and photographed, and the primary tumors and the lungs were striped, and then washed with cold PBS. Primary tumors were weighed and photographed. Histological sections of the primary tumors were used for the following three purposes: first, the sections were stained with H&E to detect tumor apoptosis and necrosis; second, TUNEL staining was used to detect DNA fragmentation in the nucleus of late apoptotic cells in the tissue; and third, sections were incubated with an anticaspase‐3 rabbit antibody (1:200 dilution) followed by a horseradish peroxidase‐labeled antirabbit immunoglobulins (Abcam, UK) for color development and then counterstained with hematoxylin.

MMP-2 = biological target: T1, MMP-2 (Homo sapiens, UniProt P08253); experiment: MMP-2 inhibitor screening assay (fluorescent substrate method); format: biochemical
T1 sequence (P08253 110-660): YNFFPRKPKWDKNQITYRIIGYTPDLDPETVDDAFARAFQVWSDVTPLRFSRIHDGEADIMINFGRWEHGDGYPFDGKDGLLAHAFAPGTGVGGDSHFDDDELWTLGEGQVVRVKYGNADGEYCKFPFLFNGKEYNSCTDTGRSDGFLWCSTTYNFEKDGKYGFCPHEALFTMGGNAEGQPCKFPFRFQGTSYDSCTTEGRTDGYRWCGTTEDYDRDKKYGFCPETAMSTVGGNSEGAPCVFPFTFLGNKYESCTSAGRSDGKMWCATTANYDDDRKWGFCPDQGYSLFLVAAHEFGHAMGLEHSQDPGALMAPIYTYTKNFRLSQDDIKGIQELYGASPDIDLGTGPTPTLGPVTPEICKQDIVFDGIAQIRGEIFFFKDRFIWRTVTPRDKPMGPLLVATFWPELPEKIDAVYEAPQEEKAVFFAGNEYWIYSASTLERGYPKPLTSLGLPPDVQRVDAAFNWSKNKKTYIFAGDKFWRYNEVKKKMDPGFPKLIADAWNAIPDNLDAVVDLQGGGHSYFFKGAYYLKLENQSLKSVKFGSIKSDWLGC
Experimental: MMP‐2 Inhibitor Screening Assay: The MMP‐2 inhibitory activity of the samples was analyzed using a fluorescent substrate method, as previously described.23 The MMP substrate peptide MOCAC‐Pro‐Leu‐Gly‐Leu‐Dap(Dnp)‐Ala‐Arg‐NH2 was purchased from Sigma. […] The fluorescence intensity was measured at 328 nm for excitation and 393 nm for emission every 15 min for a 2 h period without interrupting the reaction using a fluorescence microplate reader (POLARstar Omega, Germany).

Row | Compound | number of pulmonary metastatic nodules [1] | migration rate compared with control (SMMC7721 cells [2]) [%] | T1/2 [3] [h] | T max [3] [min] | IC50 (SMMC7721 cell growth) (SMMC7721 cells [4]) [µg/mL] | tumor growth (in words) (SMMC7721 tumors) | IC50 (MMP-2) [µM]
1 | COc1cccc2c1C(=O)c1c(O)c3c(c(O)c1C2=O)C[C@@](O)(C(=O)CO)C[C@@H]3O[C@H]1C[C@H](N)[C@H](O)[C@H](C)O1 [DOX, doxorubicin] | distinctly decreased | 39.4 | 6.90 ± 1.20 | 25.8 ± 9.6 | 1.888 (≈ 3.47 µM) | inhibited tumor growth | 
2 | KGFRWR-NH2 [KGFRWR] |  |  |  |  |  |  | 14.2
